Test results as given in the supplement of paper PMC11579375.

Columns and labels:
Assay in all cases: area under the viability dose-response curve (AUC) (AUC (arbitrary units, max 500 = no viability loss)); higher = less sensitive (higher viability)
Conditions in all cases: exposure time: 120 h; concentration range: 0.1 nM - 10 µM, 6 doses
13E = system: 13E (embryonal-type hepatoblastoma organoid)
Protocol: (§1)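 Patient-derived hepatoblastoma tumor organoids (about 50 organoids per well, 384-well plates, medium with 5% BME) were treated with the PMC pediatric cancer drug library. Each drug was tested in duplicate at 6 concentrations (0.1 nM to 10 µM, 10-fold steps).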

17F1 = system: 17F1 (fetal-I hepatoblastoma organoid with intermediate liver markers)
Protocol: as §1

13F2 = system: 13F2 (fetal-II hepatoblastoma organoid with high liver markers)
Protocol: as §1

22E = system: 22E (embryonal-type hepatoblastoma organoid)
Protocol: as §1

96F1 = system: 96F1 (fetal-I hepatoblastoma organoid with intermediate liver markers)
Protocol: as §1

10F2 = system: 10F2 (fetal-II hepatoblastoma organoid with high liver markers)
Protocol: as §1

8F1 = system: 8F1 (fetal-I hepatoblastoma organoid with intermediate liver markers)
Protocol: as §1

17E = system: 17E (embryonal-type hepatoblastoma organoid)
Protocol: as §1

3E = system: 3E (embryonal-type hepatoblastoma organoid)
Protocol: as §1

135F2 = system: 135F2 (fetal-II hepatoblastoma organoid with high liver markers)
Protocol: as §1

27F1 = system: 27F1 (fetal-I hepatoblastoma organoid with intermediate liver markers)
Protocol: as §1

COc1cccc2c1C(=O)c1c(O)c3c(c(O)c1C2=O)C[C@@](O)(C(C)=O)C[C@@H]3O[C@H]1C[C@H](N)[C@H](O)[C@H](C)O1 [Daunorubicin]
area under the viability dose-response curve (13E): 301
area under the viability dose-response curve (17F1): 301
area under the viability dose-response curve (13F2): 253
area under the viability dose-response curve (22E): 317
area under the viability dose-response curve (96F1): 284
area under the viability dose-response curve (10F2): 247
area under the viability dose-response curve (8F1): 400
area under the viability dose-response curve (17E): 287
area under the viability dose-response curve (3E): 273
area under the viability dose-response curve (135F2): 283
area under the viability dose-response curve (27F1): 305

Nc1ncn([C@H]2C[C@H](O)[C@@H](CO)O2)c(=O)n1 [Decitabine (Guadecitabine)]
area under the viability dose-response curve (13E): 485
area under the viability dose-response curve (17F1): 466
area under the viability dose-response curve (13F2): 392
area under the viability dose-response curve (22E): 477
area under the viability dose-response curve (96F1): 455
area under the viability dose-response curve (10F2): 375
area under the viability dose-response curve (8F1): 478
area under the viability dose-response curve (17E): 461
area under the viability dose-response curve (3E): 453
area under the viability dose-response curve (135F2): 440
area under the viability dose-response curve (27F1): 487

CNC(=O)c1ccc(Nc2ncc(C(F)(F)F)c(NCc3nccnc3N(C)S(C)(=O)=O)n2)cc1 [Defactinib]
area under the viability dose-response curve (13E): 443
area under the viability dose-response curve (17F1): 466
area under the viability dose-response curve (13F2): 442
area under the viability dose-response curve (22E): 469
area under the viability dose-response curve (96F1): 443
area under the viability dose-response curve (10F2): 465
area under the viability dose-response curve (8F1): 466
area under the viability dose-response curve (17E): 449
area under the viability dose-response curve (3E): 454
area under the viability dose-response curve (135F2): 454
area under the viability dose-response curve (27F1): 455

C[C@@H]1C[C@H]2[C@@H]3CCC4=CC(=O)C=C[C@]4(C)[C@@]3(F)[C@@H](O)C[C@]2(C)[C@@]1(O)C(=O)CO [Dexamethasone]
area under the viability dose-response curve (13E): 473
area under the viability dose-response curve (17F1): 477
area under the viability dose-response curve (13F2): 494
area under the viability dose-response curve (22E): 497
area under the viability dose-response curve (96F1): > 500
area under the viability dose-response curve (10F2): > 500
area under the viability dose-response curve (8F1): 484
area under the viability dose-response curve (17E): > 500
area under the viability dose-response curve (3E): > 500
area under the viability dose-response curve (135F2): 472
area under the viability dose-response curve (27F1): > 500

CC(=O)O[C@@]12CO[C@@H]1C[C@H](O)[C@@]1(C)C(=O)[C@H](O)C3=C(C)[C@@H](OC(=O)[C@H](O)[C@@H](NC(=O)OC(C)(C)C)c4ccccc4)C[C@@](O)([C@@H](OC(=O)c4ccccc4)[C@H]21)C3(C)C [Docetaxel]
area under the viability dose-response curve (13E): 179
area under the viability dose-response curve (17F1): 255
area under the viability dose-response curve (13F2): 171
area under the viability dose-response curve (22E): 248
area under the viability dose-response curve (96F1): 203
area under the viability dose-response curve (10F2): 134
area under the viability dose-response curve (8F1): 401
area under the viability dose-response curve (17E): 175
area under the viability dose-response curve (3E): 101
area under the viability dose-response curve (135F2): 195
area under the viability dose-response curve (27F1): 267

CN1CCN(c2ccc3nc(-c4c(N)c5c(F)cccc5[nH]c4=O)[nH]c3c2)CC1 [Dovitinib]
area under the viability dose-response curve (13E): 417
area under the viability dose-response curve (17F1): 468
area under the viability dose-response curve (13F2): 400
area under the viability dose-response curve (22E): 412
area under the viability dose-response curve (96F1): 433
area under the viability dose-response curve (10F2): 418
area under the viability dose-response curve (8F1): 499
area under the viability dose-response curve (17E): 390
area under the viability dose-response curve (3E): 396
area under the viability dose-response curve (135F2): 455
area under the viability dose-response curve (27F1): 477

COc1cccc2c1C(=O)c1c(O)c3c(c(O)c1C2=O)C[C@@](O)(C(=O)CO)C[C@@H]3O[C@H]1C[C@H](N)[C@H](O)[C@H](C)O1 [Doxorubicin]
area under the viability dose-response curve (13E): 305
area under the viability dose-response curve (17F1): 311
area under the viability dose-response curve (13F2): 258
area under the viability dose-response curve (22E): 336
area under the viability dose-response curve (96F1): 311
area under the viability dose-response curve (10F2): 281
area under the viability dose-response curve (8F1): 384
area under the viability dose-response curve (17E): 278
area under the viability dose-response curve (3E): 263
area under the viability dose-response curve (135F2): 308
area under the viability dose-response curve (27F1): 333

O=c1cc(CN2CCOCC2)occ1OCCCCCSc1ccnc2cc(C(F)(F)F)ccc12 [EHT 1864]
area under the viability dose-response curve (13E): 481
area under the viability dose-response curve (17F1): 477
area under the viability dose-response curve (13F2): 456
area under the viability dose-response curve (22E): 490
area under the viability dose-response curve (96F1): 488
area under the viability dose-response curve (10F2): 375
area under the viability dose-response curve (8F1): 468
area under the viability dose-response curve (17E): 454
area under the viability dose-response curve (3E): 371
area under the viability dose-response curve (135F2): 475
area under the viability dose-response curve (27F1): 490

CC(C)(O)CNc1nc(Nc2ccnc(C(F)(F)F)c2)nc(-c2cccc(C(F)(F)F)n2)n1 [Enasidenib]
area under the viability dose-response curve (13E): > 500
area under the viability dose-response curve (17F1): > 500
area under the viability dose-response curve (13F2): > 500
area under the viability dose-response curve (22E): > 500
area under the viability dose-response curve (96F1): > 500
area under the viability dose-response curve (10F2): > 500
area under the viability dose-response curve (8F1): > 500
area under the viability dose-response curve (17E): > 500
area under the viability dose-response curve (3E): > 500
area under the viability dose-response curve (135F2): > 500
area under the viability dose-response curve (27F1): > 500

C[C@@H]1CN(C(=O)c2ccc(NC(=O)c3cc(O[C@H](C)c4c(Cl)ccc(F)c4Cl)c(N)nn3)cc2)C[C@H](C)N1 [Ensartinib]
area under the viability dose-response curve (13E): 422
area under the viability dose-response curve (17F1): 483
area under the viability dose-response curve (13F2): 410
area under the viability dose-response curve (22E): 393
area under the viability dose-response curve (96F1): 456
area under the viability dose-response curve (10F2): 449
area under the viability dose-response curve (8F1): 444
area under the viability dose-response curve (17E): 411
area under the viability dose-response curve (3E): 403
area under the viability dose-response curve (135F2): 449
area under the viability dose-response curve (27F1): 468

Nc1ccccc1NC(=O)c1ccc(CNC(=O)OCc2cccnc2)cc1 [Entinostat]
area under the viability dose-response curve (13E): 425
area under the viability dose-response curve (17F1): 434
area under the viability dose-response curve (13F2): 429
area under the viability dose-response curve (22E): 439
area under the viability dose-response curve (96F1): 483
area under the viability dose-response curve (10F2): 358
area under the viability dose-response curve (8F1): 426
area under the viability dose-response curve (17E): 428
area under the viability dose-response curve (3E): 386
area under the viability dose-response curve (135F2): 455
area under the viability dose-response curve (27F1): 462

c1cn2cc(-c3ccc4cn[nH]c4c3)nc(Nc3ccc(N4CCOCC4)cc3)c2n1 [Entospletinib]
area under the viability dose-response curve (13E): 486
area under the viability dose-response curve (17F1): 480
area under the viability dose-response curve (13F2): > 500
area under the viability dose-response curve (22E): 496
area under the viability dose-response curve (96F1): 480
area under the viability dose-response curve (10F2): 462
area under the viability dose-response curve (8F1): 480
area under the viability dose-response curve (17E): > 500
area under the viability dose-response curve (3E): 473
area under the viability dose-response curve (135F2): 481
area under the viability dose-response curve (27F1): 490

CN1CCN(c2ccc(C(=O)Nc3n[nH]c4ccc(Cc5cc(F)cc(F)c5)cc34)c(NC3CCOCC3)c2)CC1 [Entrectinib]
area under the viability dose-response curve (13E): 418
area under the viability dose-response curve (17F1): 448
area under the viability dose-response curve (13F2): 418
area under the viability dose-response curve (22E): 429
area under the viability dose-response curve (96F1): 454
area under the viability dose-response curve (10F2): 399
area under the viability dose-response curve (8F1): 460
area under the viability dose-response curve (17E): 404
area under the viability dose-response curve (3E): 424
area under the viability dose-response curve (135F2): 438
area under the viability dose-response curve (27F1): 484

Nc1cc(F)ccc1NC(=O)c1ccc(CNC(=O)/C=C/c2cccnc2)cc1 [Epidaza]
area under the viability dose-response curve (13E): 448
area under the viability dose-response curve (17F1): 467
area under the viability dose-response curve (13F2): 426
area under the viability dose-response curve (22E): 461
area under the viability dose-response curve (96F1): 492
area under the viability dose-response curve (10F2): 395
area under the viability dose-response curve (8F1): > 500
area under the viability dose-response curve (17E): 437
area under the viability dose-response curve (3E): 466
area under the viability dose-response curve (135F2): 444
area under the viability dose-response curve (27F1): 482

COc1cc(OC)cc(N(CCNC(C)C)c2ccc3ncc(-c4cnn(C)c4)nc3c2)c1 [Erdafitinib]
area under the viability dose-response curve (13E): 341
area under the viability dose-response curve (17F1): 499
area under the viability dose-response curve (13F2): 323
area under the viability dose-response curve (22E): 345
area under the viability dose-response curve (96F1): 498
area under the viability dose-response curve (10F2): 448
area under the viability dose-response curve (8F1): 489
area under the viability dose-response curve (17E): 231
area under the viability dose-response curve (3E): 227
area under the viability dose-response curve (135F2): 496
area under the viability dose-response curve (27F1): 467
